This note sets out measurements from PMC5423295, “Positive Modulatory Interactions of NMDA Receptor GluN1/2B Ligand Binding Domains Attenuate Antagonists Activity” (Frontiers in Pharmacology, 2017).

Holding throughout (test): two-electrode voltage clamp, Xenopus oocytes
Assay type in all cases: cell-based
Common to all, as to conditions: read-out: EC50 or IC50
On the technique in general: Two-electrode voltage clamp is typically applied to oocytes expressing channels or transporters.

Assay [1] has as its target T1, GluN1/2B NMDA receptor (GluN1a + GluN2B) (Rattus norvegicus, UniProt P35439+Q00960).
T1 construct: gene Grin1; cRNAs 1:1-3 in Xenopus oocytes; heterotetramer

Assay [2] addresses T2, GluN1/2B NMDA receptor (GluN1a + GluN2B) (Rattus norvegicus, UniProt P35439+Q00960, P35439:E781A).
T2 construct: gene Grin1; cRNAs 1:1-3 in Xenopus oocytes; heterotetramer
From the text: (§1) two-electrode voltage clamp, Xenopus oocytes on GluN1/2B NMDA receptor (GluN1a + GluN2B)

Assay [3] has as its target T3, GluN1/2B NMDA receptor (GluN1a + GluN2B) (Rattus norvegicus, UniProt P35439+Q00960, P35439:Y535A).
T3 construct: gene Grin1; cRNAs 1:1-3 in Xenopus oocytes; heterotetramer
Source text: as §1

T1 sequence (Q00960 27-1482, other chains not shown): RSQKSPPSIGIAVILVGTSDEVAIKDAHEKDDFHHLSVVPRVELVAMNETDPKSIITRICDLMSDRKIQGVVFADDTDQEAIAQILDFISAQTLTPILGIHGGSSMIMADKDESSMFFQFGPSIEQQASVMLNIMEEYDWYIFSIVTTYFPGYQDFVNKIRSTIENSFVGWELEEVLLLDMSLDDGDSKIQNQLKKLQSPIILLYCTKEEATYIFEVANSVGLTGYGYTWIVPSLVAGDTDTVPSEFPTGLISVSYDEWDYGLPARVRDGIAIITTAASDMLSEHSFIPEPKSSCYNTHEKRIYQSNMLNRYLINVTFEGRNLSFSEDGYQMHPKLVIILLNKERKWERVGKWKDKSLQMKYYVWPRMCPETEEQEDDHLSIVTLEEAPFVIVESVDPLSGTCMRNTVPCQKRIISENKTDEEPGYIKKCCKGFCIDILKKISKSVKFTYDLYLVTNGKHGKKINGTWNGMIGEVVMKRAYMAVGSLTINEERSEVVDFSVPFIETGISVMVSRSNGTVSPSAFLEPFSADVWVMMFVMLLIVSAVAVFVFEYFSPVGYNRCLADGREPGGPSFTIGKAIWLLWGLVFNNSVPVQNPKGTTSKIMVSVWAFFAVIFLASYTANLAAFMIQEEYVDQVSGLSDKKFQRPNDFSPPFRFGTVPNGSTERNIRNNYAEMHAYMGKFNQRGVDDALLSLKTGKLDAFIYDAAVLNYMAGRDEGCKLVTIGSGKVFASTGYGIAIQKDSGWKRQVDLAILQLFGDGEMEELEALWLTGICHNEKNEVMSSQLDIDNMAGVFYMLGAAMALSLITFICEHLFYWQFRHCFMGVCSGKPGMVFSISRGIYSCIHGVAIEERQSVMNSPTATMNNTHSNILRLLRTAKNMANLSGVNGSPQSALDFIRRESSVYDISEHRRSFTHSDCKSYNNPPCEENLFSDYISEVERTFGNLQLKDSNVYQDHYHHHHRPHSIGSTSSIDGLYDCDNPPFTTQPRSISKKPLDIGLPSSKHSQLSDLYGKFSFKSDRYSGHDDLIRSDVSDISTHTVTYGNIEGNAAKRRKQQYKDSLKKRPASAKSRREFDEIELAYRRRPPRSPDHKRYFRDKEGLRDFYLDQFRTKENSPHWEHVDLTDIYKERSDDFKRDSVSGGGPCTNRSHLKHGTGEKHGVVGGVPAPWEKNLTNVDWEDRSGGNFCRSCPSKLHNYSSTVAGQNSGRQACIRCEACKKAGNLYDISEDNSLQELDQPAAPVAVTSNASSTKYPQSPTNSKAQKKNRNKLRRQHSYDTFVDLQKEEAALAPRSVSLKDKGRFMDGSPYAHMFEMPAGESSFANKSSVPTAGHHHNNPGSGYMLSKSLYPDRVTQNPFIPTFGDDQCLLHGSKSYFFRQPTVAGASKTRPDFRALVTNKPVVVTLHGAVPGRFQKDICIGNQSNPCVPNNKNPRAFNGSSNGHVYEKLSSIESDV
T3 sequence (Q00960 27-1482, other chains not shown): as above
T2 sequence (Q00960 27-1482, other chains not shown): as above

For `NC(CCCP(=O)(O)O)C(=O)O` (racemic) [DL-AP5], the IC50 (in general, the concentration that gives 50% inhibition) in assay [1] is 35700 ± 1300 nM.
Turning to `O=C(O)c1cc(O)c2c(Cl)cc(Cl)cc2n1` [5,7-DCKA], the figures for the half-inhibitory concentration (IC50) in assay [1], in assay [2] and in assay [3] were 4630 ± 330 nM, 610 ± 90 nM and 160 ± 20 nM, respectively.
